In PubChem BioAssay (NCI):
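Compound exposure: 48 hours, 5 concentrations, 96-well plates. GI50 is the concentration that inhibits growth by half. TGI: total growth inhibition.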

Key:
Assay in all cases: inhibition of tumour cell growth, NCI panel, 48 h
[1] = system: COLO 205 colon
[2] = system: SK-MEL-5 melanoma
[3] = system: SF-539 CNS
[4] = system: MDA-MB-231 breast
[5] = system: UACC-257 melanoma
[6] = system: A498 renal
[7] = system: HS 578T breast
[8] = system: HCT-15 colon
[9] = system: SF-295 CNS
[10] = system: RPMI-8226 leukemia
[11] = system: MOLT-4 leukemia
[12] = system: UACC-62 melanoma
[13] = system: SK-MEL-28 melanoma
[14] = system: NCI/ADR-RES ovarian
[15] = system: DU-145 prostate
[16] = system: HCC-2998 colon
[17] = system: M14 melanoma
[18] = system: NCI-H23 lung
[19] = system: UO-31 renal
[20] = system: CCRF-CEM leukemia
[21] = system: K-562 leukemia
[22] = system: T-47D breast
[23] = system: KM12 colon
[24] = system: LOX IMVI melanoma
[25] = system: 786-0 renal
[26] = system: EKVX NSCLC
[27] = system: MCF7 breast
[28] = system: HCT-116 colon
[29] = system: HT29 colon
[30] = system: BT-549 breast
[31] = system: HOP-92 NSCLC
[32] = system: SK-MEL-2 melanoma
[33] = system: OVCAR-5 ovarian
[34] = system: OVCAR-8 ovarian
[35] = system: IGROV1 ovarian
[36] = system: SN12C renal
[37] = system: NCI-H460 lung
[38] = system: HOP-62 NSCLC
[39] = system: PC-3 prostate
[40] = system: SF-268 CNS
[41] = system: HL-60(TB) leukemia
[42] = system: SW-620 colon
[43] = system: MDA-MB-435
[44] = system: U251 CNS
[45] = system: SNB-75 CNS
[46] = system: NCI-H522 lung
[47] = system: MALME-3M melanoma
[48] = system: OVCAR-3 ovarian
[49] = system: TK-10 renal
[50] = system: OVCAR-4 ovarian
[51] = system: SNB-19 CNS
[52] = system: A549 NSCLC
[53] = system: NCI-H226 lung
[54] = system: SK-OV-3 ovarian
[55] = system: RXF 393 renal
[56] = system: CAKI-1 renal
[57] = system: ACHN renal
[58] = system: SR leukemia

CC1=C(CCCOC(=O)NCCCl)C2=C(C)C3(CC3)[C@@](C)(O)C(=O)C2=C1
GI50 [1]: 2.06 µM
TGI [1]: 6.65 µM
GI50 [2]: 1.73 µM
TGI [2]: 3.35 µM
GI50 [3]: 2.04 µM
TGI [3]: 5.5 µM
GI50 [4]: 2.56 µM
TGI [4]: 8.35 µM
GI50 [5]: 3.91 µM
TGI [5]: > 100 µM
GI50 [6]: 1.88 µM
TGI [6]: 3.95 µM
GI50 [7]: 8.31 µM
TGI [7]: 87.4 µM
GI50 [8]: 2.84 µM
TGI [8]: > 100 µM
GI50 [9]: 2.53 µM
TGI [9]: 7.33 µM
GI50 [10]: 8.4 µM
TGI [10]: 40.1 µM
GI50 [11]: 5.49 µM
TGI [11]: > 100 µM
GI50 [12]: 2.02 µM
TGI [12]: 4.96 µM
GI50 [13]: 2.63 µM
TGI [13]: 8.03 µM
GI50 [14]: 2.95 µM
TGI [14]: > 100 µM
GI50 [15]: 1.14 µM
TGI [15]: > 100 µM
GI50 [16]: 2.35 µM
TGI [16]: 7.24 µM
GI50 [17]: 2.46 µM
TGI [17]: 8.58 µM
GI50 [18]: 1.83 µM
TGI [18]: 9.17 µM
GI50 [19]: 2.02 µM
TGI [19]: 5.76 µM
GI50 [20]: 9.4 µM
TGI [20]: > 100 µM
GI50 [21]: 23 µM
TGI [21]: > 100 µM
GI50 [22]: 3.36 µM
TGI [22]: > 100 µM
GI50 [23]: 10.5 µM
TGI [23]: 88.2 µM
GI50 [24]: 3.13 µM
TGI [24]: 19.8 µM
GI50 [25]: 2.71 µM
TGI [25]: 8.16 µM
GI50 [26]: 3.45 µM
TGI [26]: > 100 µM
GI50 [27]: 2.24 µM
TGI [27]: > 100 µM
GI50 [28]: 2.96 µM
TGI [28]: > 100 µM
GI50 [29]: 3.01 µM
TGI [29]: 28.6 µM
GI50 [30]: 2.08 µM
TGI [30]: 6.66 µM
GI50 [31]: 2.87 µM
TGI [31]: 8.24 µM
GI50 [32]: 2.31 µM
TGI [32]: 4.96 µM
GI50 [33]: 3.13 µM
TGI [33]: > 100 µM
GI50 [34]: 3.4 µM
TGI [34]: > 100 µM
GI50 [35]: 1.77 µM
TGI [35]: 17.6 µM
GI50 [36]: 3.84 µM
TGI [36]: > 100 µM
GI50 [37]: 2.42 µM
TGI [37]: 13.6 µM
GI50 [38]: 2.37 µM
TGI [38]: 7.42 µM
GI50 [39]: 4.01 µM
TGI [39]: > 100 µM
GI50 [40]: 3.07 µM
TGI [40]: 51.7 µM
GI50 [41]: 4.57 µM
TGI [41]: > 100 µM
GI50 [42]: 24.5 µM
TGI [42]: > 100 µM
GI50 [43]: 5.07 µM
TGI [43]: 99.4 µM
GI50 [44]: 3.97 µM
TGI [44]: > 100 µM
GI50 [45]: 1.75 µM
TGI [45]: 3.84 µM
GI50 [46]: 3.99 µM
TGI [46]: 21.4 µM
GI50 [47]: 1.85 µM
TGI [47]: 4.22 µM
GI50 [48]: 2.95 µM
TGI [48]: 9.9 µM
GI50 [49]: 3.55 µM
TGI [49]: > 100 µM
GI50 [50]: 2.7 µM
TGI [50]: > 100 µM
GI50 [51]: 3.83 µM
TGI [51]: > 100 µM
GI50 [52]: 3.42 µM
TGI [52]: > 100 µM
GI50 [53]: 2.4 µM
TGI [53]: 6.33 µM
GI50 [54]: 2.35 µM
TGI [54]: 6.46 µM

COc1ccc(CNC(=O)COc2ccc(/C=N/Nc3nc4ccccc4s3)cc2)cc1
GI50 [2]: 2.01 µM
TGI [2]: 5.06 µM
GI50 [3]: 1.65 µM
TGI [3]: 4.18 µM
GI50 [4]: 1.86 µM
TGI [4]: 4.45 µM
GI50 [55]: 1.75 µM
TGI [55]: 3.76 µM
GI50 [5]: 4.2 µM
TGI [5]: > 100 µM
GI50 [7]: 2.24 µM
TGI [7]: 19.1 µM
GI50 [8]: 3.44 µM
TGI [8]: > 100 µM
GI50 [9]: 3.25 µM
TGI [9]: 11.2 µM
GI50 [10]: 2.13 µM
TGI [10]: > 100 µM
GI50 [11]: > 100 µM
TGI [11]: > 100 µM
GI50 [12]: 2.32 µM
TGI [12]: 11.8 µM
GI50 [13]: 4.35 µM
TGI [13]: > 100 µM
GI50 [14]: 3.12 µM
TGI [14]: 19.4 µM
GI50 [15]: 3.8 µM
TGI [15]: > 100 µM
GI50 [16]: 5.37 µM
TGI [16]: > 100 µM
GI50 [17]: 4.69 µM
TGI [17]: > 100 µM
GI50 [18]: 3.05 µM
TGI [18]: 12.6 µM
GI50 [20]: > 100 µM
TGI [20]: > 100 µM
GI50 [56]: 1.98 µM
TGI [56]: 5.21 µM
GI50 [22]: 1.69 µM
TGI [22]: 5.36 µM
GI50 [23]: 2.51 µM
TGI [23]: > 100 µM
GI50 [24]: 3.04 µM
TGI [24]: > 100 µM
GI50 [25]: 2.37 µM
TGI [25]: 5.9 µM
GI50 [26]: 2.98 µM
TGI [26]: 32.5 µM
GI50 [57]: 1.67 µM
TGI [57]: 3.42 µM
GI50 [27]: 3.52 µM
TGI [27]: 27.5 µM
GI50 [28]: 2.25 µM
TGI [28]: 6.76 µM
GI50 [30]: 1.61 µM
TGI [30]: 3.41 µM
GI50 [31]: 1.4 µM
TGI [31]: 4.41 µM
GI50 [32]: 3.84 µM
TGI [32]: 16 µM
GI50 [58]: 3.05 µM
TGI [58]: > 100 µM
GI50 [33]: 4.57 µM
TGI [33]: > 100 µM
GI50 [34]: 3.93 µM
TGI [34]: > 100 µM
GI50 [35]: 1.69 µM
TGI [35]: 6.73 µM
GI50 [36]: 2.84 µM
TGI [36]: > 100 µM
GI50 [37]: 2.65 µM
TGI [37]: 7.3 µM
GI50 [38]: 2.22 µM
TGI [38]: 11.6 µM
GI50 [39]: 3.35 µM
TGI [39]: > 100 µM
GI50 [40]: 3.04 µM
TGI [40]: 12.2 µM
GI50 [41]: > 100 µM
TGI [41]: > 100 µM
GI50 [42]: 5.23 µM
TGI [42]: > 100 µM
GI50 [43]: 3.47 µM
TGI [43]: > 100 µM
GI50 [44]: 1.73 µM
TGI [44]: 5.43 µM
GI50 [45]: 1.07 µM
TGI [45]: 3.29 µM
GI50 [46]: 2.44 µM
TGI [46]: 9.63 µM
GI50 [47]: 1.55 µM
TGI [47]: 3.89 µM
GI50 [48]: 2.1 µM
TGI [48]: 5.42 µM
GI50 [49]: 3.49 µM
TGI [49]: 16.3 µM
GI50 [50]: 1.56 µM
TGI [50]: 5 µM
GI50 [51]: 2.69 µM
TGI [51]: 12.6 µM
GI50 [52]: 3.12 µM
TGI [52]: 87.6 µM
